Reference: PubChem BioAssay AID1259407 (Chemical Carcinogenesis Research Information System (CCRIS), 2018)
The source made the active and inactive calls. How the calls were made is not given here.

Test system: CCRIS mutagenicity, Ames/micronucleus/aberration tests
Test: CCRIS mutagenicity studies

`C[C@@H]1Cc2c(Cl)cc(C(=O)NC(Cc3ccccc3)C(=O)O)c(O)c2C(=O)O1` (some centres not stated) was tested, and the mutagenic call (Test System: AMES SALMONELLA TYPHIMURIUM, Strain/Indicator: TA102, Metabolic Activation: RAT, LIVER, S-9, AROCLOR 1254, Method: STANDARD PLATE) was “inactive; negative”, the mutagenic call (Test System: AMES SALMONELLA TYPHIMURIUM, Strain/Indicator: TA104, Metabolic Activation: NONE, Method: PREINCUBATION) was “inactive; negative” and the mutagenic call (Test System: AMES SALMONELLA TYPHIMURIUM, Strain/Indicator: TA104, Metabolic Activation: RAT LIVER S-9, Method: PREINCUBATION) was “inactive; negative”. The mutagenic call (Test System: AMES SALMONELLA TYPHIMURIUM, Strain/Indicator: TA1535, Metabolic Activation: HAMSTER, LIVER, S-9, AROCLOR 1254 (10 OR 30%), Method: PREINCUBATION) was “inactive; negative”, the mutagenic call (Test System: AMES SALMONELLA TYPHIMURIUM, Strain/Indicator: TA1535, Metabolic Activation: HAMSTER, LIVER, S-9, AROCLOR 1254, Method: PREINCUBATION) was “inactive; negative” and the mutagenic call (Test System: AMES SALMONELLA TYPHIMURIUM, Strain/Indicator: TA1535, Metabolic Activation: MOUSE KIDNEY S-9, NADP OR ARACHIDONIC ACID (10%), Method: MICROMETHOD) was “active; positive”. The mutagenic call (Test System: AMES SALMONELLA TYPHIMURIUM, Strain/Indicator: TA1535, Metabolic Activation: MOUSE LIVER S-9 (10%), Method: MICROMETHOD) was “inactive; negative”, the mutagenic call (Test System: AMES SALMONELLA TYPHIMURIUM, Strain/Indicator: TA1535, Metabolic Activation: NONE, Method: STANDARD PLATE) was “inactive; negative” and the mutagenic call (Test System: AMES SALMONELLA TYPHIMURIUM, Strain/Indicator: TA1535, Metabolic Activation: RAT LIVER S-9, AROCLOR 1254 (10%), Method: MICROMETHOD) was “inactive; negative”. The mutagenic call (Test System: AMES SALMONELLA TYPHIMURIUM, Strain/Indicator: TA1535, Metabolic Activation: RAT LIVER S-9, Method: PREINCUBATION) was “inactive; negative”, the mutagenic call (Test System: AMES SALMONELLA TYPHIMURIUM, Strain/Indicator: TA1535, Metabolic Activation: RAT, LIVER, S-9, AROCLOR 1254 (10 OR 30%), Method: PREINCUBATION) was “inactive; negative” and the mutagenic call (Test System: AMES SALMONELLA TYPHIMURIUM, Strain/Indicator: TA1535, Metabolic Activation: RAT, LIVER, S-9, AROCLOR 1254, Method: PREINCUBATION) was “inactive; negative”. For the same molecule, the mutagenic call (Test System: AMES SALMONELLA TYPHIMURIUM, Strain/Indicator: TA1535, Metabolic Activation: RAT, LIVER, S-9, AROCLOR 1254, Method: STANDARD PLATE) was “inactive; negative”, the mutagenic call (Test System: AMES SALMONELLA TYPHIMURIUM, Strain/Indicator: TA1537, Metabolic Activation: NONE, Method: PREINCUBATION) was “inactive; negative” and the mutagenic call (Test System: AMES SALMONELLA TYPHIMURIUM, Strain/Indicator: TA1537, Metabolic Activation: NONE, Method: STANDARD PLATE) was “inactive; negative”. For the same molecule, the mutagenic call (Test System: AMES SALMONELLA TYPHIMURIUM, Strain/Indicator: TA1537, Metabolic Activation: RAT LIVER S-9, Method: PREINCUBATION) was “inactive; negative”, the mutagenic call (Test System: AMES SALMONELLA TYPHIMURIUM, Strain/Indicator: TA1537, Metabolic Activation: RAT, LIVER, S-9, AROCLOR 1254, Method: STANDARD PLATE) was “inactive; negative” and the mutagenic call (Test System: AMES SALMONELLA TYPHIMURIUM, Strain/Indicator: TA1538, Metabolic Activation: MOUSE KIDNEY S-9, NADP OR ARACHIDONIC ACID (10%), Method: MICROMETHOD) was “active; positive”. For the same molecule, the mutagenic call (Test System: AMES SALMONELLA TYPHIMURIUM, Strain/Indicator: TA1538, Metabolic Activation: MOUSE LIVER S-9 (10%), Method: MICROMETHOD) was “inactive; negative”, the mutagenic call (Test System: AMES SALMONELLA TYPHIMURIUM, Strain/Indicator: TA1538, Metabolic Activation: NONE, Method: PREINCUBATION) was “inactive; negative” and the mutagenic call (Test System: AMES SALMONELLA TYPHIMURIUM, Strain/Indicator: TA1538, Metabolic Activation: NONE, Method: STANDARD PLATE) was “inactive; negative”. For the same molecule, the mutagenic call (Test System: AMES SALMONELLA TYPHIMURIUM, Strain/Indicator: TA1538, Metabolic Activation: RAT LIVER S-9, AROCLOR 1254 (10%), Method: MICROMETHOD) was “inactive; negative”, the mutagenic call (Test System: AMES SALMONELLA TYPHIMURIUM, Strain/Indicator: TA1538, Metabolic Activation: RAT LIVER S-9, Method: PREINCUBATION) was “inactive; negative” and the mutagenic call (Test System: AMES SALMONELLA TYPHIMURIUM, Strain/Indicator: TA1538, Metabolic Activation: RAT, LIVER, S-9, AROCLOR 1254, Method: STANDARD PLATE) was “inactive; negative”. The mutagenic call (Test System: CHINESE HAMSTER V-79, Strain/Indicator: V-79(HPRT)/6-THIOGUANINE, Metabolic Activation: NONE) was “inactive; negative”, the mutagenic call (Test System: CHINESE HAMSTER V-79, Strain/Indicator: V-79(HPRT)/6-THIOGUANINE, Metabolic Activation: RAT LIVER S-9) was “inactive; negative” and the mutagenic call (Test System: Chinese hamster lung cells, Strain/Indicator: V79 (HPRT)/6-Thioguanine, Metabolic Activation: None, Method: Standard plate) was “active; positive (weak)”. For the same molecule, the mutagenic call (Test System: Chinese hamster lung cells, Strain/Indicator: V79 (HPRT)/6-Thioguanine, Metabolic Activation: Rat, Kidney, S-9 (phenobarbital/beta-naphthoflavone), Method: Standard plate) was “active; positive (weak)”, the mutagenic call (Test System: MOUSE LYMPHOMA, Strain/Indicator: L5178Y (TK+/TK-), Metabolic Activation: NONE, Method: SUSPENSION/PLATE) was “inactive; negative” and the mutagenic call (Test System: MOUSE LYMPHOMA, Strain/Indicator: L5178Y (TK+/TK-), Metabolic Activation: RAT, LIVER, S-9, AROCLOR 1254, Method: SUSPENSION/PLATE) was “inactive; negative”. For the same molecule, the mutagenic call (Test System: Mouse lymphoma cells, Strain/Indicator: L5178Y (tk+/tk-), Metabolic Activation: None, Method: Microtiter) was “active; positive (weak)”, the mutagenic call (Test System: Mouse lymphoma cells, Strain/Indicator: L5178Y (tk+/tk-), Metabolic Activation: Rat, Kidney, S-9 (phenobarbital/beta-naphthoflavone), Method: Microtiter) was “active; positive (weak)” and the mutagenic call (Test System: UDS HUMAN INFANT UROTHELIAL CELLS, Strain/Indicator: THY INCORP, Metabolic Activation: NONE, Method: AUTORADIOGRAPHY) was “inactive; negative”. For the same molecule, the mutagenic call (Test System: UDS HUMAN UROTHELIAL CELLS, Strain/Indicator: THY INCORP, Metabolic Activation: NONE, Method: AUTORADIOGRAPHY) was “active; positive”, the mutagenic call (Test System: UDS HUMAN UROTHELIAL CELLS, Strain/Indicator: THYMIDINE INCORPORATION, Metabolic Activation: NONE, Method: AUTORADIOGRAPHY) was “active; positive” and the mutagenic call (Test System: UDS PORCINE PRIMARY BLADDER EPITHELIAL CELL, Strain/Indicator: THY INCORP, Metabolic Activation: NONE, Method: AUTORADIOGRAPHY) was “active; positive”. For the same molecule, the mutagenic call (Test System: UDS RODENT PRIMARY CELLS, Metabolic Activation: NONE, Method: AUTORADIOGRAPHY (DNA REPAIR)) was “inactive; negative”.
